19 compounds from US20240083917A1, “Polycyclic Kinase Inhibitor” (priority 2021, published 2024) can be followed below.

A word on the IC50: it is the point on the concentration scale where inhibition reaches its midpoint. A lower IC50 goes with inhibition by little substance.

In this test the target is DNA-PK (Homo sapiens (Human), UniProt P78527). Put plainly: In vitro enzymatic activity, ADP-Glo Kinase Assay. It counts as biochemical. To be noted: starting concentration 1 μM, 10 concentrations. Here is the method:
Test substances: the compounds of the present disclosure, whose structural formulas and preparation methods are shown in the Examples.
1. Preparation of 1-Fold Kinase Buffer
1) The detection starting concentration of the compound was 1 μM, and it was prepared to a 100-fold concentration, namely 100 μM. 2 μl of […] was taken, 198 μl of 100% DMSO was added, and it was prepared into 100 μM compound solution. 100 μl of the compound of 100-fold concentration was added to a second well on a 96-well plate, and 60 μl of 100% DMSO was added to other wells. 30 μl of the compound was taken from the second well and added to a third well, it was diluted downwards sequentially by 3 times, and there was a total of 10 concentrations diluted.
2) 100 μl of 100% DMSO and positive control wortmannin with the highest concentration (400 nM) were transferred to two empty wells as a Max well and a Min well respectively.
3) 50 nl of the compound was transferred to a 384-well plate by Echo.
3. Preparation of 2× Kinase Solution
1) The 1-fold kinase buffer was used to prepare 2-fold DNA-PK kinase solution.
2) 2.5 μl of the 2-fold kinase solution was transferred to a reaction well of the 384-well plate.
3) It was shaken, mixed uniformly, and still placed at a room temperature.
4. Preparation of 2× Substrate Solution
1) The 1-fold kinase buffer was used to prepare 2-fold substrate solution.
2) 2.5 μl of the 2-fold substrate solution was transferred to the reaction well of the 384-well plate for a starting reaction.
3) It was shaken, and mixed uniformly.
5. Kinase Reaction and Termination
1) The 384-well plate was covered by a cover, and incubated at 28° C for 3 hours.
2) 5 μl of ADP-Glo reagent was transferred, and incubated at 28° C. for 2 hours.
6. Detection of Reaction Result
1) 10 μl of a kinase detection reagent was transferred into the reaction well of the 384-well plate for terminating the reaction.
2) It was still placed at the room temperature for 30 minutes.
Sample values were read on Envision.
8. Inhibition Rate Calculation
1) Data was copied from Envision.
2) It was converted into inhibition rate data.
Inhibition percentage=(max-conversion)/(max-min)*100. Wherein, max refers to the conversion rate of a DMSO control, min refers to the conversion rate of a control without enzyme activity, and conversion refers to the conversion rate of the test compound at each concentration.
3) The data was imported into MS Excel and XLFit excel add-in version 5.4.0.8 was used for curve fitting.
Background: ADP-Glo first removes unused ATP, then detects ADP through luciferase.

As to `Cc1cc2ncnn2cc1Nc1ncc2c(n1)N1C(=NCC13CCC(O)CC3)N2C` (single isomer, unassigned) [Compound 7-1, 5′-methyl-2′-((7-methyl-[1,2,4]-triazolo[1,5-a]pyridin-6-yl)amino)-5′,7″-dihydrospiro[cyclohexane-1,8′-imidazo[1,2-e]purine]-4-ol], the concentration for half-maximal inhibition (IC50) stood at 0.62 nM.

For the compound `Cc1cc2ncnn2cc1Nc1ncc2c(n1)N1C(=NCC13CCC(O)CC3)N2C` (single isomer, unassigned) [Compound 7-2, 5′-methyl-2′-((7-methyl-[1,2,4]-triazolo[1,5-a]pyridin-6-yl)amino)-5′,7″-dihydrospiro[cyclohexane-1,8′-imidazo[1,2-e]purine]-4-ol], inhibition was half-maximal at 0.72 nM (IC50). In the case of `COC1CCC2(CC1)CN=C1N(C)c3cnc(Nc4cn5ncnc5cc4C)nc3N12` (single isomer, unassigned) [Compound 16-1, 4-methoxy-5′-methyl-N-(7-methyl-[1,2,4]triazolo[1,5-a]pyridin-6-yl)-5′,7′-dihydrospiro[cyclohexane-1,8′-imidazo[1,2-e]purin]-2′-amine], the IC50 worked out at 3 nM.

`COC1CCC2(CC1)CN=C1N(C)c3cnc(Nc4cn5ncnc5cc4C)nc3N12` (single isomer, unassigned) [Compound 16-2, 4-methoxy-5′-methyl-N-(7-methyl-[1,2,4]triazolo[1,5-a]pyridin-6-yl)-5′,7′-dihydrospiro[cyclohexane-1,8′-imidazo[1,2-e]purin]-2′-amine] had an IC50 of 2.2 nM.

`Cc1cc2ncnn2cc1Nc1ncc2c(n1)N1C(=NCC13CCOCC3)N2C` [Compound 1, 5-methyl-N-(7-methyl-[1,2,4]triazolo[1,5-a]pyridin-6-yl)-2′,3′,5,5′,6′,7-hexanydrospiro[imidazo[1,2-e]purine-8,4′-pyran]-2-amine] yielded an IC50 of 0.82 nM. Turning to `Cc1cc2ncnn2cc1Nc1ncc2nc3n(c2n1)C1(CCOCC1)CN3C` [Compound 2, 6-methyl-N-(7-methyl-[1,2,4]triazolo[1,5-a]pyridin-6yl)-2′,3′,5′,6,6′,7-hexahydrospiro[imidazo[1,2-e]purine-8,4′-pyran]-2-amine], the IC50 came to 22 nM. In the case of `Cc1cc2ncnn2cc1Nc1ncc2nc3n(c2n1)C1(CCOCC1)CN3` [Compound 3, N-(7-methyl[1,2,4]-triazolo[1,5-a]pyridin-6-yl)-2′,3′,5′,6,6′,7-hexahydrospiro[imidazo[1,2-e]purine-8,4′-pyran]-2-amine] it was 10.6 nM; in that of `Cc1cc2ncnn2cc1Nc1ncc2c(n1)N1C(=NCC13CCCCC3)N2C` [Compound 4, 5′-methyl-N-(7-methyl-[1,2,4]triazolo[1,5-a]pyridin-6-yl)-5′,7′-dihydrospiro[cyclonexane-1,8′-imidazo[1,2-e]purine]-2′-amine], 0.8 nM. For the compound `Cc1cc2ncnn2cc1Nc1ncc2c(n1)N1C(=NCC13CCC(F)(F)CC3)N2C` [Compound 5, 4,4-difluoro-5″-methyl-N-(7-methyl-[1,2,4]-triazolo[1,5-a]pyridin-6-yl)-5′,7′-dihydrospiro[cyclohexane-1,8′-imidazo[1,2-e]purine]-2′-amine], the IC50 was 1.63 nM. `Cc1cc2ncnn2cc1Nc1ncc2c(n1)N1C(=NCC13CCC(=O)CC3)N2C` [Compound 6, 5′-methyl-2-((7-methyl-[1,2,4]-triazolo[1,5-a]pyridin-6-yl)amino)-5′,7′-dihydrospiro[cyclonexane-1,8′-imidazo[1,2-e]purine]-4-one]: the IC50 amounted to 4.8 nM. For the compound `Cc1cc2ncnn2cc1Nc1ncc2c(n1)N1C(=NCC13CCSCC3)N2C` [Compound 8, 5-methyl-N-(7-methyl-[1,2,4]triazolo[1,5-a]pyridin-6yl)-2′,3′,5,5′,6′,7-hexahydrospiro[imidazo[1,2-]purine-8,4′thiopyran]-2-amine], it took 0.89 nM to reach half-maximal inhibition (IC50). Compound `Cc1cc2ncnn2cc1Nc1ncc2c(n1)N1C(=NCC13CCS(=O)(=O)CC3)N2C` [Compound 9, 5-methyl-2-((7-methyl-[1,2,4]-triazolo[1,5-a]pyridin-6-yl)amino)-2′,3′,5,5′,6′,7-hexahydrospiro[imidazo[1,2-e]purine-8,4′-thiopyran]1′,1′-dioxide] came in with an IC50 of 21 nM.

Compound `COC1(C)CCC2(CC1)CN=C1N(C)c3cnc(Nc4cn5ncnc5cc4C)nc3N12` (stereo not shown) [Compound 15-1, 4-methoxy-4,5′-dimethyl-N-(7-methyl-[1,2,4]triazolo[1,5-a]pyridin-6H)-5′7′-dihydrospiro[cyclohexane-1,8′-imidazo[1,2-e]purin]-2′-amine] came in with a half-maximal inhibitory concentration (IC50) of 1.37 nM.

On to `Cc1cc2ncnn2cc1Nc1ncc2c(n1)N1C(=NCC1(C)CCO)N2C` (stereo not shown) [Compound 17, 2-(5,8-dimethyl-2-((7-methyl-[1,2,4]-triazolo[1,5-a]pyridin-6-yl)amino)-7,8-dihydro-5H-imidazo[1,2-e]purin-8-yl) ethan-1-ol], for which the IC50 was found to be 9.8 nM. Compound `Cc1cc2ncnn2cc1Nc1ncc2c(n1)N1C(=NCC13CCOC3)N2C` (stereo not shown) [Compound 18, 5′-methyl-N-(7-methyl-[1,2,4]-triazolo[1,5-a]pyridin-6-yl)-4,5,5′,7′-tetrahydro-2-H-spiro[furan-3, 8′-imidazo[1,2-e]purin]-2′-amine] returned an IC50 of 1.4 nM. In the case of `Cc1cc2ncnn2cc1Nc1ncc2c(n1)N1C(=NCC13CCCOCC3)N2C` (stereo not shown) [Compound 19, 5methyl-N-(7-methyl-[1,2,4]triazolo[1,5-a]pyridin-6-yl)-5,7-dihydrospiro[imidazo[1,2-e]purine-8,4′-oxepan]-2-amine] it was 1.6 nM; in that of `Cc1cc2ncnn2cc1Nc1ncc2c(n1)N1C(=NC[C@@]13CCCOCC3)N2C` [Compound 19-1], 1.1 nM. As for `Cc1cc2ncnn2cc1Nc1ncc2c(n1)N1C(=NC[C@]13CCCOCC3)N2C` [Compound 19-2], half-maximal inhibition (IC50) was put at 1.7 nM. For `Cc1cc2ncnn2cc1Nc1ncc2c(n1)N1C(=NCC13CC[S+]([O-])CC3)N2C` (stereo not shown) [Compound 20, 5-methyl-2-((7-methyl-[1,5-a]pyridin-6-yl)amino)-2′,3′,5,5′,6′,7-hexanydrospiro[imidazo[1,2-e]purine-8,4′-thiopyran]-1′-oxide], the IC50 is 18.7 nM.
